Source: patent US7402663B2, “Modified peptide” (University of Ulster, priority 2001, dated 2008)
Like-named read-outs stand apart in the source and are kept apart here. Numbered stars: 1 amine (or outer) side, 2 acyl side, 3 side chain; on linkers, the order of the positions; unused ones are H or OH. Square brackets hold non-standard residues; d marks the D form. Ends that are not written are not given here. Peptide text beside a SMILES is read from it. X1 = O=C(O)C[C@@H](C(=O)[*:2])N(C[C@H](O)[C@@H](O)[C@H](O)[C@H](O)CO)[*:1]; sY = N[C@@H](Cc1ccc(OS(=O)(=O)O)cc1)C(=O)O

What was measured:
[1] = tested on: obese diabetic (ob/ob) mice; test: Voluntary food intake in fasted obese diabetic (ob/ob) mice after i.p. injection; format: in vivo, mouse; conditions: 100 nmol/kg i.p.
Experimental: (§1) Mice which had been previously habituated to feeding for 3 h/day were administered a single i.p. injection of saline (0.9% w/v NaCl, 10 ml/kg) in the fasted state (10.00 h) and food was immediately returned following injection. Two days after the saline injection, mice were randomly allocated into groups of 7-8 animals which were administered a single i.p. injection (from 1 to 100 nmol/kg) of either CCK-8, structurally modified CCK-8 analogues and/or other peptide hormones (including, bombesin, leptin and islet amyloid polypeptide (IAPP)). Food intake was carefully monitored at 30 min intervals up to 180 min post injection. In one series of experiments, the ability of CCK-8 and Asp^1-glucitol CCK-8 to inhibit feeding activity was studied in overnight fasted adult obese hyperglycaemic (ob/ob) mice. All animal studies were done in accordance with the Animals (Scientific Procedures) Act 1986.
FIG. 4 Effect of CCK-8, Asp^1-glucitol CCK-8 or saline on voluntary food intake in obese diabetic (ob/ob) mice. Saline or test agents were administered by i.p. injection (100 nmol/kg) to fasted obese diabetic (ob/ob) mice at time 0 immediately before introduction of food. Cumulative food intake was monitored at 30, 60, 90, 120, 150, 180, 210, 240, 270 and 300 min post injection. Values are means±SE of 8 observations. […]

[2] = Effects of mouse serum on in vitro degradation of peptides (HPLC); format: in vitro ADME
Experimental: Effects of mouse serum on degradation of CCK-8, Asp^1glucitol CCK-8 and pGlu-Gln CCK-8. Serum (20 μl) from fasted Swiss TO mice was incubated at 37° C. with 10 μg of either native CCK-8, Asp^1-glucitol CCK-8 or pGlu-Gln CCK-8 for periods up to 2 h in a reaction mixture (final vol. 500 μl ) containing 50 mmol/l triethanolamine/HCl buffer pH 7.8. The reaction was stopped by addition of 5 μl of TFA and the final volume adjusted to 1.0 ml using 0.1% (v/v) TFA/water. Samples were centrifuged (13,000 g, 5 min) and the supernatant applied to a C-18 Sep-Pak cartridge (Waters/Millipore) which was previously primed and washed with 0.1% (v/v) TFA/water. After washing with 20 ml 0.12% TFA/water, bound material was released by elution with 2 ml of 80% (v/v) acetonitrile/water and concentrated using a Speed-Vac concentrator (AES 1000, Savant). The volume was adjusted to 1.0 ml with 0.12% (v/v) TFA/water and applied to a (250×4.6 mm) Vydac C-18 column pre-equilibrated with 0.12% (v/v) TFA/water at a flow rate of 1.0 ml/min. The concentration of acetonitrile in the eluting solvent was raised from 0 to 31.5% over 15 min, from 31.5 to 38.5% over 30 min, and from 38.5 to 70% over 5 min, using linear gradients monitoring eluting peaks at 206 nm.

Swiss TO mice = test: Voluntary food intake in fasted Swiss TO mice after i.p. injection; format: in vivo, mouse
Experimental: Effects of CCK-8, Asp^1glucitol CCK-8, pGlu-Gln CCK-8 and other peptides on food intake in mice. Studies to evaluate the relative potencies of control CCK-8, Asp^1-glucitol CCK-8, pGlu-Gln CCK-8 and other peptides involved in regulation of feeding were performed using male Swiss TO mice (n=16) aged 7-12 weeks from a colony originating from the Behavioral and Biomedical Research Unit, University of Ulster. The animals were housed individually in an air-conditioned room at 22±2° C. with 12 h light/12 h dark cycle. Drinking water was supplied ad libitum and standard mouse maintenance diet (Trouw Nutrition, Cheshire, UK) was provided for various times as indicated below. The mice were habituated to a daily feeding period of 3 h/day by progressively reducing the feeding period over a 3 week period. On days 1-6, food was supplied from 10.00 to 20.00 h, days 7-14 from 10.00 to 16.00 h and days 15-21 food was restricted to 10.00 to 13.00 h. Body weight, food and water intake were monitored daily.
as §1
Statistical analysis. Groups of data are presented as means±SE. Statistical evaluation was performed using analysis of variance, least significant difference multiple comparisons test and Student's unpaired t-test as appropriate. Differences were considered to be significant if P<0.05.

[3] = generally accepted; cited from earlier work

Compound: CSCC[C@H](NC(=O)[C@H](Cc1ccc(OS(=O)(=O)O)cc1)NC(=O)[C@H](CC(=O)O)NC[C@H](O)[C@@H](O)[C@H](O)[C@H](O)CO)C(=O)NCC(=O)N[C@@H](Cc1c[nH]c2ccccc12)C(=O)N[C@@H](CCSC)C(=O)N[C@@H](CC(=O)O)C(=O)N[C@@H](Cc1ccccc1)C(N)=O [Asp^1-glucitol CCK-8] (H-[X1][sY]MGWMDF-NH2)
- potency compared with native CCK-8 ([1]; FIG. 4): considerable more potent
- effect on voluntary food intake ([1]; FIG. 4, up to 300 min): significantly reduce voluntary food intake
- % Total CCK-like material [2]: 100%
- remaining at 1 h, 20 µg/ml ([2]; Swiss TO, mouse, serum, pH 7.8): 100%
- remaining at 2 h, 20 µg/ml ([2]; Swiss TO, mouse, serum, pH 7.8): 100%
- potency at reducing food intake compared to equivalent dose of CCK-8 (Swiss TO mice; 100 nmol/kg i.p., FIG. 3): significantly more potent at reducing food intake at each time point (except at 30 min)
- sustained inhibition of cumulative food intake over 3 h compared to saline (Swiss TO mice; 100 nmol/kg i.p., FIG. 3, up to 180 min): sustained over the 3 h post-treatment feeding period
- dose-response effects on food intake compared with CCK-8 (Swiss TO mice; 1 to 100 nmol/kg i.p., FIGS. 5-7): more prolonged effects at lower doses

Compound: CSCC[C@H](NC(=O)[C@H](Cc1ccc(OS(=O)(=O)O)cc1)NC(=O)[C@@H](N)CC(=O)O)C(=O)NCC(=O)N[C@@H](Cc1c[nH]c2ccccc12)C(=O)N[C@@H](CCSC)C(=O)N[C@@H](CC(=O)O)C(=O)N[C@@H](Cc1ccccc1)C(N)=O [CCK-8, Asp^1Tyr^2(SO3H)-Met^3Gly^4Trp^5Met^6Asp^7Phe^8amide]
- half-life [3]: 1 to 2 min
- metabolised at 1 h, 20 µg/ml ([2]; Swiss TO, pH 7.8, after 1 h incubation with mouse serum, read-out: % converted to CCK-8 fragments (HPLC peak area)): 83.1%
- metabolised at 2 h, 20 µg/ml ([2]; Swiss TO, pH 7.8, after 2 h incubation with mouse serum, read-out: % converted to CCK-8 fragments (HPLC peak area)): 100%
- remaining at 1 h, 20 µg/ml ([2]; Swiss TO, pH 7.8, intact peptide peak, incubation time 1 h, mouse serum, 37° C., read-out: % Total CCK-like material): 16.9%
- remaining at 2 h, 20 µg/ml ([2]; Swiss TO, pH 7.8, intact peptide peak, incubation time 2 h, mouse serum, 37° C., read-out: % Total CCK-like material): 0%
- % Total CCK-like material ([2]; intact peptide peak, incubation time 0 h, mouse serum, 37° C.): 100%
- % Total CCK-like material ([2]; peak CCK-8 fragment (B), incubation time 1 h): 39.3%
- % Total CCK-like material ([2]; peak CCK-8 fragment (B), incubation time 2 h): 58.7%
- % Total CCK-like material ([2]; peak CCK-8 fragment (C), incubation time 1 h): 43.8%
- % Total CCK-like material ([2]; peak CCK-8 fragment (C), incubation time 2 h): 29.5%
- % Total CCK-like material ([2]; peak CCK-8 fragment (D), incubation time 2 h): 11.8%

Compound: glycated tGLP-1: control peptide with a glucitol adduct on the amino-terminus (glucitol-HAEGTFTSDVSSYLEGQAAKEFIAWLVKGR; ends and bridges not checked; UniProt P01275 98-127, looked up)
- induction of satiety (control experiment) (Swiss TO mice; control experiments in this test system): insufficient on its own to induce satiety
